US7189523B2, “Methods of identifying compounds that modulate IL-4 receptor-mediated IgE synthesis utilizing a B-cell associated protein” (Rigel Pharmaceuticals, Inc., priority 2002, dated 2007)

Assays:
[1] = test system: IL-4 induced germline ε transcription (ε promoter reporter) in naïve A5T4 cells; test: Re-infection (DNA transfer) assay in naïve A5T4 reporter cells; also used for the functional profile of the mutants; format: cell-based, human; conditions: for Reporter Ratio: Table 2, CL08wt and mutants screened in the A5T4 reporter line; for functional category of the mutant compared to CL08wt: % change in reporter ratio calculated after subtracting 1.0 from the individual ratios
Procedure: The ability of peptide CL08wt (SEQ ID NO: 1) to inhibit germline ε transcription was confirmed in naïve cells. Briefly, Phoenix cells were transfected with a retroviral vector encoding a BFP-CL08wt peptide fusion as described in WO 99/58663 and WO 97/27213. Naïve A5T4 cells were infected with the resultant virions and grown for 3 days. The infected cells were stimulated with IL-4 (60 U/mL) and, after 3 days, the cells were assessed by FACS for BFP and GFP. […] The BFP fluorescence data corresponding to the BFP^+ and BFP^− populations are provided in Panel A. The GFP fluorescence data corresponding to the BFP^+ and BFP^− populations are presented in Panel B. The reporter ratio for this purpose is determined as the geometric mean of the GFP fluorescence of the BFP^− population divided by the geometric mean of the GFP fluorescence of the BFP^+ population. The reporter ratio for the CL08 in this re-infection assay was 1.39.
A collection of CL08 mutants was generated by replacing single or double amino acid residues in the sequence of CL08wt (SEQ ID NO: 1) with a different amino acid, typically an alanine, as described in copending application Ser. No. 10/095,659, entitled Methods of Identifying Protein Targets, filed Mar. 8, 2002. The functional profiles for the mutants derived from CL08wt (SEQ ID NO: 1) was obtained by constructing and screening for activity in the A5T4 reporter cell line in the manner described above. The activity of each mutant at the germline ε promoter is reflected in the reporter ratio, as described above. The reporter ratios were the functional values that were used to develop the functional profiles.
TABLE 2 depicts the amino acid sequences (the mutations are underlined) of the mutants tested and the measured reporter ratios when screening in the A5T4 reporter line.
Comparison of the interaction and functional profiles was performed by categorizing the mutants of CL08 based on the functional and interaction assays. Based on the reporter ratio, described in panel C of FIG. 5, each mutant was categorized into one of four functional categories: (1) reduction of function (ROF); (2) loss of function (LOF); (3) increase of function (IOF) or (4) functionally neutral (N), as compared to the activity of the wild type peptide, here CL08wt. As mentioned previously, cells expressing a peptide that inhibits germline ε transcription have reporter ratios of ≧1.1. Cells expressing a loss of function mutant have a reporter ratio of […]. […] Functionally neutral mutants have reporter ratios that fall within ±50% of that of the CL08wt (SEQ ID NO: 1) peptide. The % increase or decrease in reporter ratio is calculated after subtracting 1.0 from the individual ratios. […]

[2] = test system: IL-4 induced germline ε transcription (ε promoter reporter) in A5T4 reporter cells; test: A5T4 reporter line screening assay of library clones (HBEGF2a/GFP reporter, FACS); format: cell-based, human; conditions: geometric mean GFP fluorescence, +IL-4/+Dox to +IL-4/−Dox populations; IL-4 60 U/mL, Dox 10 ng/ml; ≧1.1 = inhibition
Source text: Peptide CL08wt (SEQ ID NO: 1) was identified by screening a retroviral library of random peptide 20-mers for the ability to inhibit IL-4 induced germline ε transcription using the HBEGF2a/[…] dual reporter phenotypic screening system described in WO 01/31232. To construct the random library, A5T4 reporter cells (described in more detail below) were infected with an infectious retroviral library of random peptide 20-mers (prepared as described in WO 97/27213; see also WO 01/34806 at page 39, line 36 through page 40, line 19). The retroviral vector used includes a gene encoding blue fluorescent protein (BFP) fused upstream of the region encoding the random peptide via a linker region encoding an α-helical peptide linker (expression fusion product is referred to as “BFP-peptide”). Expression of the BFP-peptide product is controlled by a promoter sensitive to the tetracycline-regulated transactivator such that expression of the BFP-peptide is regulated by tetracycline (Tet) or doxycycline (Dox). See U.S. patent application Ser. No. 10/096,339 entitled “Methods and Compositions for Screening for Alter Cellular Phenotypes”, filed on Mar. 8, 2002. […]

[3] = test system: ST486 endogenous α promoter; test: TAQMAN assay of germline α transcription (selectivity); format: cell-based; conditions: ST486 cells stimulated with TGF-β 40 ng/ml; average of 3 values; p=0.7371
Procedure: The assay was similar to that described in the immediately preceding section, except that ST486 cells (ATCC #CRL-1647) engineered to express the tetracycline-regulated transactivator were infected and the infected cells were stimulated with TGF-β (40 ng/ml; Peprotech). The primers and probe, which are specific for the transcription product driven by the ST486 endogenous α promoter, were as follows (the probe was labeled at the 5′-end with Fam and at the 3′-end with Tamra): […]

human BAP-37 (hBAP-37) = target: T1, human BAP-37 (hBAP-37) (Homo sapiens, UniProt Q99623); test: β-galactosidase yeast two hybrid (YTH) interaction assay; format: binding; conditions: peptide as bait
T1 construct: expressed in transfected cells; prey cDNA from a library of the A5T4 reporter line (BJAB human B-cells)
Procedure: Potential binding partners for peptide CL08wt (SEQ ID NO: 1) were identified in a β-galactosidase yeast two-hybrid (YTH) assay using peptide CL08wt (SEQ ID NO: 1) as bait and a cDNA library constructed from the A5T4 reporter cell line as prey. Binding was assessed by β-galactosidase quantification using BetaFluor (Novagen) as a substrate. A negative interaction control (no cDNA fused downstream of the GAL4 activation domain sequence) was also run. A general outline of the YTH assay is illustrated in FIG. 6A. Following clustering, filtering to remove non-specific bait hits (e.g., GFP and BFP), singletons and clusters recognized by 10 or more cDNA baits (based upon historical YTH assays), 7 prey clones were identified as hits.
Potential targets identified in the YTH assay were reconfirmed as generally outlined in FIG. 7. The cDNA clones identified as hits in the YTH assay were purified and rescreened for interaction with the CL08wt peptide in YTH assay. The hit clones were also screened in a control assay for interaction with the BFP using a vector (pGBKT7) that contained only the BFP and not the CL08wt peptide. At this stage, 7 putative target clones remained.
The interaction of CL08wt (SEQ ID NO: 1) peptide and its mutants with the clones identified as potential targets for the peptide CL08wt (SEQ ID NO: 1) was then quantified in a β-galactosidase YTH assay. The YTH assay was performed in the manner described above. A general outline of this YTH assay is illustrated in FIG. 6B. For each clone tested, an interaction profile was developed by comparing the β-galactosidase activity of each mutant to that of the wild type peptide, as described above.
The interaction of these N, IOF and ROF mutants with different polypeptides encoded by the putative target clones were quantified using the YTH assay described above. […]

T1 sequence (Q99623 whole entry): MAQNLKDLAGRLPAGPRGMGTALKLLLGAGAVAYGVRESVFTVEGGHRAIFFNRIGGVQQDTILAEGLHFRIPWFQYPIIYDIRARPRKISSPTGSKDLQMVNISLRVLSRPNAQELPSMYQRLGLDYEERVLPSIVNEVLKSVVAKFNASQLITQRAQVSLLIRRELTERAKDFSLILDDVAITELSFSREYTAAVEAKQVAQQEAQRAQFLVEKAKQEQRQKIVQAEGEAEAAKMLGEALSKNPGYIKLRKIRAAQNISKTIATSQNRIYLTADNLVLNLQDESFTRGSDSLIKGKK

TGVHVAAQINRSIMHYISSP (peptide encoded by synthetic oligomer) [CL08EL, double alanine mutant of CL08wt]
Reporter Ratio [1]: 1.43

TGVHVELQINRSIMHYISSP (peptide encoded by synthetic oligomer) [CL08wt, 20-mer peptide from a random retroviral library, expressed as BFP-peptide fusion]
Reporter Ratio [2]: 1.37 | endogenous α inhibition ratio [3]: 1.06 | binding to human BAP-37 in yeast two hybrid interaction assay (human BAP-37 (hBAP-37)): bind

TGVHVELQIAASIMHYISSP (peptide encoded by synthetic oligomer) [CL08NR, double alanine mutant of CL08wt]
functional category of the mutant compared to CL08wt [1]: IOF (An increase of function mutant (IOF) shows a >50% increase in reporter ratio) | binding to human BAP-37 in yeast two hybrid interaction assay (human BAP-37 (hBAP-37)): bind

TGAAVELQINRSIMHYISSP (peptide encoded by synthetic oligomer) [CL08VH, double alanine mutant of CL08wt]
functional category of the mutant compared to CL08wt [1]: ROF (a reduction of function of mutant (ROF) shows a >50% decrease in reporter ratio) | binding to human BAP-37 in yeast two hybrid interaction assay (human BAP-37 (hBAP-37)): bind

TGVHVELQINRSIMAAISSP (peptide encoded by synthetic oligomer) [CL08HY, double alanine mutant of CL08wt]
Reporter Ratio [1]: 1.54
